Test systems include 786-0 renal; A498 renal; CAKI-1 renal; HCT-116 colon; HL-60(TB) leukemia; NCI/ADR-RES ovarian; OVCAR-8 ovarian; RPMI-8226 leukemia; SK-OV-3 ovarian; UACC-62 melanoma.
Holding throughout (test): DTP human tumour cell line panel, 48 h

The structures appear in SMILES notation.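 Results reflect a 48-hour exposure of cells in 96-well plates to compound at five concentrations. Here, GI50 denotes the concentration required for 50% inhibition of growth. The concentration for full growth arrest is given as TGI.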

By GI50 is commonly meant the concentration at which growth is held to half of that of the control. The term TGI denotes the concentration at which net growth stops.

For the molecule `Cc1cc(-c2ccco2)cc(C)c1/C=C/c1cncc(-c2nn[nH]n2)c1`, the GI50 in the assay with 786-0 renal, in the assay on A498 renal, with CAKI-1 renal, with HCT-116 colon, with HL-60(TB) leukemia and with NCI/ADR-RES ovarian was above 25 µM in each case. Moreover, the GI50 in the assay with OVCAR-8 ovarian, in the assay with RPMI-8226 leukemia, in the assay on SK-OV-3 ovarian and with UACC-62 melanoma was above 25 µM each time. The TGI in the assay with 786-0 renal, with A498 renal, with CAKI-1 renal, in the assay with HCT-116 colon, in the assay with HL-60(TB) leukemia and in the assay with NCI/ADR-RES ovarian was above 25 µM each time. Moreover, the TGI with OVCAR-8 ovarian, in the assay with RPMI-8226 leukemia, with SK-OV-3 ovarian and with UACC-62 melanoma was above 25 µM throughout.

Turning to `Cc1ccc(O)cc1Nc1ccnc2cc(-c3ccccn3)ccc12`, the GI50 is 2.98 µM with 786-0 renal; 1.83 µM in the assay with A498 renal; 1.05 µM with CAKI-1 renal; 3.49 µM with HCT-116 colon; 4.69 µM with HL-60(TB) leukemia; 4.49 µM in the assay with NCI/ADR-RES ovarian. The GI50 in the assay on OVCAR-8 ovarian was 3.61 µM; in the assay with RPMI-8226 leukemia it was 4.25 µM; in the assay with SK-OV-3 ovarian, 1.98 µM; with UACC-62 melanoma it was 3.45 µM. The TGI with 786-0 renal was 6.66 µM; in the assay on A498 renal, 5.04 µM; in the assay with CAKI-1 renal, 4.36 µM; in the assay on HCT-116 colon, 6.96 µM; in the assay on HL-60(TB) leukemia, 9.53 µM; in the assay on NCI/ADR-RES ovarian, 15.3 µM. In addition, the TGI in the assay with OVCAR-8 ovarian was determined as 9.28 µM; in the assay on RPMI-8226 leukemia, 9.88 µM; in the assay on SK-OV-3 ovarian, 6.3 µM; in the assay on UACC-62 melanoma, 7.34 µM.

On to `CN(c1ccc(NC(=O)NCCN2CCOCC2)cc1)c1ccnc(Nc2ccc(CS(C)(=O)=O)cc2)n1`, for which the GI50 with 786-0 renal, in the assay on A498 renal, with CAKI-1 renal, in the assay with HCT-116 colon, in the assay with HL-60(TB) leukemia and in the assay on NCI/ADR-RES ovarian was above 25 µM each time. For the same molecule, the GI50 in the assay with OVCAR-8 ovarian, in the assay with RPMI-8226 leukemia, in the assay with SK-OV-3 ovarian and in the assay with UACC-62 melanoma was above 25 µM throughout. Besides, the TGI in the assay with 786-0 renal, in the assay on A498 renal, with CAKI-1 renal, in the assay with HCT-116 colon, in the assay on HL-60(TB) leukemia and in the assay with NCI/ADR-RES ovarian was above 25 µM in each case. Besides, the TGI in the assay on OVCAR-8 ovarian, in the assay with RPMI-8226 leukemia, in the assay with SK-OV-3 ovarian and in the assay with UACC-62 melanoma was above 25 µM throughout.

Take `O=CC(O)C(O)C(OC1OC(CO)C(O)C(O)C1O)C(O)CO` (stereo unspecified) (tested in a mixture with another compound): the TGI is above 100 µM with 786-0 renal; above 100 µM in the assay on A498 renal; above 100 µM in the assay on CAKI-1 renal; above 100 µM with HCT-116 colon; 64.1 µM in the assay on HL-60(TB) leukemia; above 100 µM in the assay on NCI/ADR-RES ovarian. The TGI is above 100 µM in the assay on OVCAR-8 ovarian, 59.2 µM in the assay with RPMI-8226 leukemia, above 100 µM in the assay on SK-OV-3 ovarian and above 100 µM in the assay with UACC-62 melanoma.

As for `O=[N+]([O-])c1ccc(/C=C\c2ccc3c(c2)OCO3)c([N+](=O)[O-])c1`, the total growth inhibition concentration (TGI) is above 100 µM with 786-0 renal; 46.7 µM in the assay on A498 renal; 92 µM in the assay with CAKI-1 renal; 21.4 µM in the assay on HCT-116 colon; 39 µM in the assay with HL-60(TB) leukemia; 81.6 µM in the assay on NCI/ADR-RES ovarian. The TGI was 45.5 µM with OVCAR-8 ovarian, 19.2 µM in the assay with RPMI-8226 leukemia, 35.4 µM in the assay with SK-OV-3 ovarian and 43.2 µM in the assay with UACC-62 melanoma.

For `Oc1ccc(-c2[nH]c3ccccc3c2-c2nc3ccccc3o2)cc1`, the GI50 in the assay with 786-0 renal is 4.4 µM; with A498 renal, 2.18 µM; in the assay on CAKI-1 renal it was 2.62 µM; in the assay with HCT-116 colon it was 3.15 µM; in the assay with HL-60(TB) leukemia it was 12.1 µM; with NCI/ADR-RES ovarian, 2.63 µM. Besides, the GI50 was 4.57 µM with OVCAR-8 ovarian, 14.3 µM in the assay with RPMI-8226 leukemia, 5.03 µM in the assay on SK-OV-3 ovarian and 3.1 µM in the assay on UACC-62 melanoma. The TGI with 786-0 renal is 15.2 µM; in the assay with A498 renal, 14.9 µM; in the assay on CAKI-1 renal, 14.2 µM; in the assay on HCT-116 colon, 13 µM; with HL-60(TB) leukemia, 49.5 µM; in the assay with NCI/ADR-RES ovarian, 9.04 µM. The total growth inhibition concentration (TGI) in the assay with OVCAR-8 ovarian was determined as 20.9 µM; in the assay with RPMI-8226 leukemia it was 52.3 µM; in the assay with SK-OV-3 ovarian, 17.3 µM; in the assay on UACC-62 melanoma, 15 µM.

`Cc1cn2c(/C=C3/C(=O)Nc4ccc(C(=O)O)cc43)c(C)nc2s1`: the GI50 with 786-0 renal, in the assay with A498 renal, with CAKI-1 renal, in the assay with HL-60(TB) leukemia, with NCI/ADR-RES ovarian and in the assay with OVCAR-8 ovarian was above 100 µM each time. Besides, the GI50 in the assay on RPMI-8226 leukemia, with SK-OV-3 ovarian and in the assay on UACC-62 melanoma was above 100 µM each time. The concentration for total growth inhibition (TGI) in the assay with 786-0 renal, with A498 renal, in the assay on CAKI-1 renal, with HL-60(TB) leukemia, in the assay on NCI/ADR-RES ovarian and with OVCAR-8 ovarian was above 100 µM each time. Also, the TGI with RPMI-8226 leukemia, with SK-OV-3 ovarian and with UACC-62 melanoma was above 100 µM each time.

On to `CCOC(=O)C1=C(C)N(Cc2ccc(Cl)cc2Cl)[C@]2(C#N)C(O)=C(Cl)C(Cl)=C(O)[C@]12C#N`, for which the GI50 in the assay with 786-0 renal was above 100 µM; with A498 renal, above 100 µM; in the assay with CAKI-1 renal, above 100 µM; in the assay with HCT-116 colon, 34.7 µM; in the assay on HL-60(TB) leukemia, 31.9 µM; in the assay on NCI/ADR-RES ovarian, 0.19 µM. The GI50 was 73.4 µM with OVCAR-8 ovarian, 21.2 µM in the assay with RPMI-8226 leukemia and above 100 µM with SK-OV-3 ovarian. Besides, the TGI in the assay with 786-0 renal was above 100 µM; in the assay on A498 renal, above 100 µM; with CAKI-1 renal, above 100 µM; with HCT-116 colon, above 100 µM; with HL-60(TB) leukemia, 76.9 µM; in the assay with NCI/ADR-RES ovarian, 15.6 µM. In addition, the TGI in the assay on OVCAR-8 ovarian was above 100 µM; with RPMI-8226 leukemia, 47.3 µM; in the assay with SK-OV-3 ovarian, above 100 µM.

(Values after PubChem BioAssay (NCI).)
